The values that follow are results of earlier work, collected in patent US20210205199A1, “Dermatological Cosmetic Composition Comprising an SDKP Peptide or an Analog Thereof” (RPM Dermatologie, priority 2016, published 2021).

The conditions of the data set: result in words; background.

As for “acetyl-serine-aspartic acid-lysine-proline-OH [Ac-SDKP-OH]”, the “Sensitivity to enzymatic hydrolysis” value is given as “very sensitive to enzymatic hydrolysis” and the Stability to hydrolysis result is recorded as “hydrolyzes very easily”.
